Experimental data taken from patent US9469652B2, “ERK inhibitors” (Eli Lilly and Company, priority 2014, dated 2016).

System: human non-small cell lung cancer cells NCI-H2122 (KRAS_G12C)
Test: In vivo combination study, NCI-H2122 NSCLC xenograft model
Set-up: species or system female athymic nude mice
Settings: single agent
Method: More specifically, the compound of Example 1 is tested in combination with either the pan-RAF inhibitor compound or the CDK4/6 inhibitor compound in HCT116, a KRAS mutant colorectal cancer xenograft model. Also, the compound of Example 1 is tested in combination with either the CDK4/6 inhibitor compound or DC101 in NCI-H441, A549, and NCI-H2122, KRAS mutant non-small cell lung cancer (NSCLC) xenograft models.
Combination efficacy is also tested in three KRAS mutant NSCLC xenograft models including A549 (KRAS_G12S) in SCID mice as well as NCI-H441 (KRAS_G12V) and NCI-H2122 (KRAS_G12C) in athymic nude mice. Expand human non-small cell lung cancer cells NCI-H441 (ATCC, #CRL-5807) and NCI-H2122 (ATCC, #CRL-5985) in culture, harvest and inject 5×10e^6 cells in 200 μL of 1:1 HBSS+matrigel solution subcutaneously on to the rear right flank of female athymic nude mice (20-22 gm, Harlan Laboratories). Expand human non-small cell lung cancer cells A549 (ATCC, #CC1-185) in culture, harvest and inject 5×10e^6 cells in 200 μL of 1:1 HBSS+matrigel solution subcutaneously on to the rear right flank of female CB-17 SCID mice (18-20 gm, Taconic Farms). For all cell lines, measure tumor growth and body weight twice per week beginning the seventh day after the implantation. When average tumor sizes reach 200-300 mm^3, randomize animals and group into groups of five to seven animals. Prepare test compound in an appropriate vehicle (see below) and administer by oral gavage (compound of Example 1 and the CDK4/6 inhibitor compound) or intraperitoneally (DC101) for 21 to 28 days. Tumor response is determined by tumor volume measurement performed twice a week during the course of treatment. Vehicle used in these studies is 1% HEC/0.25% Tween® 80/0.05% Antifoam. The compound of Example 1 is formulated in 1% HEC/0.25% Tween® 80/0.05% Antifoam and the CDK4/6 inhibitor compound is formulated in 1% HEC in 25 mM sodium phosphate buffer, pH 2. […] In the same NCI-H441 xenograft model, DC101 in phosphate buffer is also administered intraperitoneally twice per week (BIW) as a single agent or in combination with the compound of Example 1, 50 mpk, QD for 28 days.

Cn1nccc1Nc1nccc(-c2cc3c(s2)C(C)(C)N(CCN2CCOCC2)C3=O)n1 [Example 1, 6,6-Dimethyl-2-{2-[(1-methyl-1H-pyrazol-5-yl)amino]pyrimidin-4-yl}-5-[2-(morpholin-4-yl)ethyl]-5,6-dihydro-4H-thieno[2,3-c]pyrrol-4-one]
Delta T/C % (50 mg/kg QD, oral, 28 days): 59%
tumor growth inhibition (50 mpk): 41%
